The target of one test is cycA-Cdk2 (Homo sapiens, UniProt P24941). Kind of test: In vitro kinase assay for Cdk2. Format: biochemical. Conditions: 3 μM or 30 μM. Here is the method:
We had observed that cycA protein levels and pRb hypophosphorylation decrease in cell extracts of N10-13-10C or N13-13-10C treated cells (FIG. 8). To assess whether these compounds were direct inhibitors of Cdk2 activity, in vitro kinase assays for Cdk2 were performed.
Kinase assays for testing of Cdk2/CycA-E kinase activity. ELISA plates were blocked with 200 μl of blocking solution (PBS containing 1% BSA, 0.02% Tween and 0.02% sodium Azide) overnight at 4° C. Plates were then subsequently washed 3 times, 5 min each with 100 μl of washing solution (PBS containing 0.02% Tween and 0.02% sodium Azide). Plates were then dried during 2-4 h at room temperature. Kinase assay was performed in kinase buffer (Hepes 25 mM pH 7.4 and MgCl2 10 mM) containing 4 μg of histone H1, 30 μM ATP, 2 mM DTT, 0.1 μl of ATP-P^32, 800 nM GST-CDK2, and 800 nM of GST-cyclin A in a final volume of 60 μl. Assays were carried out in the presence or absence of different concentrations of peptide mixtures to be checked. A inhibitory control was performed adding 800 nM of p21 to the reaction media. Mixtures were incubated for 30 min at 37° C. After incubation, 50 μl of each mixture was filtered in nitrocellulose membranes placed in a dot blot apparatus. […] The radioactivity associated to the membranes was detected with a “Phosphor-imager”.

Test [1] concerns HT29 human colon adenocarcinoma cells. In words: Cellular proliferation assay (MTT). Particulars: for IC50: HT29, MTT assay after 72 h, read-out: IC50 proliferation inhibition; for Anti-proliferative effect in combination with serial dilutions of Taxol versus Taxol alone: HT29, compound at its IC50, 72 h; for Effect of Taxol on the compound's proliferation inhibition: HT29, with low dose of Taxol (11 nM), 72 h. Format: cell-based. The source says:
For screening of the peptoid library containing 10.648 compounds, controlled mixtures of trimers of N-alkylglycine oligomer molecules (peptoid) have been used and constructed under […] positional scanning formats. Chemical diversity was introduced through the substitution of position R1, R2 and R3 by 22 different primary amines. 66 controlled mixtures divided into three different subgroups depending on the R1, R2, R3 defined position. The library was screened on a cellular proliferation assay with HT29 human colon adenocarcinoma cells. The compounds were tested either alone or together with a low dose of Taxol (11 nM). After 72 h in culture, cellular viability was measured with the MTT assay.
Cellular Assays. Combinatorial libraries were screened on a cellular proliferation assay with HT29 human colon adenocarcinoma cells. The compounds were tested either alone or together with low doses of Taxol (nM). After 3 days in culture, cellular viability was measured with an MTT assay (3-4,5-Dimethyl-2-thiazolyl-2,5-diphenyl-2H-tetrazolium bromide). MTT was added at a final concentration of 1 mg/ml in the cell cultures, and after 4 h incubation at 37° C. cell lysis was performed with 15% SDS/DMF (v/v). Spectrophotometric measurement of MTT-formazan at 570 nm and a reference filter at 630 nm allows quantitation of cellular viability. Proliferation inhibition due to the compounds alone was compared to inhibition observed in Taxol plus compound treated cultures.
FIG. 1. Compounds N10-13-10C, N13-13-10C, N4-13-10C and N5-13-10C inhibit HT29 proliferation. Taxol interferes the effect of N10-13-10C and N13-13-10C. (A, B) HT29 cells were grown with peptoid at several concentrations with or without Taxol (11 nM). MTT assay was performed after 72 h of treatment. Proliferation inhibition is shown for N4-13-10C and N13-13-10C (A.), N5-13-10C and N10-13-10C (B.) compared to proliferation of control cells. IC50 value is specified for each peptoid. N10-13-10C and N13-13-10C were purified peptoids by HPLC, corresponding to the major and active fraction. N4-13-10C and N5-13-10C peptoids were not purified by HPLC. […] Proliferation was evaluated by MTT assay after 72 h of treatment. An arbitrary value of 100% was assigned to the densiometric rate of untreated cultures and all other values are depicted relative to that reference. The values are means of six (n=6) replicates.
Background: Tetrazolium assays rely on reduction of a dye to a coloured formazan, in cell work by metabolically active cells.

Consider two molecules from patent US20060229255A1, “Identification of n-alkylglycine trimers for induction of apoptosis” (priority 2003, published 2006).

Regarding `COc1ccc(CCN(CC(=O)N(CCc2ccccc2)CC(N)=O)C(=O)CNCCc2ccccc2)cc1` [N10-13-10C], at cycA-Cdk2, the “Inhibition of cycA-Cdk2 kinase activity” value is listed as “Neither of both compounds was able to inhibit”. In addition, in test [1], the IC50 is 40 µM, the “Anti-proliferative effect in combination with serial dilutions of Taxol versus Taxol alone” value was “potentated anti-proliferative effect” and the “Effect of Taxol on the compound's proliferation inhibition” value is on record as “Taxol prevented the compound's effect”.

For the molecule `COc1ccc(CCNCC(=O)N(CCc2ccc(OC)cc2)CC(=O)N(CCc2ccccc2)CC(N)=O)cc1` [N13-13-10C], on cycA-Cdk2, the “Inhibition of cycA-Cdk2 kinase activity” value is listed as “Neither of both compounds was able to inhibit”. In addition, in test [1], the IC50 worked out at 35 µM, the “Anti-proliferative effect in combination with serial dilutions of Taxol versus Taxol alone” value is “potentated anti-proliferative effect” and the “Effect of Taxol on the compound's proliferation inhibition” value is recorded as “Taxol prevented the compound's effect”.
